Data reported in ChEMBL document CHEMBL6087472, “Development and Discovery of a Selective Degrader of Casein Kinases 1 δ/ε” (J Med Chem, 2025).
Activity calls are given as the source filed them. No cut-off for these calls is given here.

Experiments:
[1] = biological target: T1, von Hippel-Lindau disease tumor suppressor/Casein kinase I isoform delta (Homo sapiens, UniProt P48730+P40337); assay: PROTAC activity at VHL/Hibit-fused CK1 delta in human MV4-11 cells assessed as degradation of CK1-delta incubated for 6 hrs by Nano-Glo HiBiT assay relative to control; format: cell-based
T1 sequence (P40337 whole entry, looked up, the tested form may be a part, canonical isoform): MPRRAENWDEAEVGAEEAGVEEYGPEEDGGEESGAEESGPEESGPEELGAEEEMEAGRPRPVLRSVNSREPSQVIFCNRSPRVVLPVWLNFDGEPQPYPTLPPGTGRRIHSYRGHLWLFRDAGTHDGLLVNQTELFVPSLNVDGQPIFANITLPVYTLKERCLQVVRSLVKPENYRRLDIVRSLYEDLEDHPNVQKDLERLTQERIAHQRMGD
T1 sequence (P48730 whole entry, looked up, the tested form may be a part, canonical isoform): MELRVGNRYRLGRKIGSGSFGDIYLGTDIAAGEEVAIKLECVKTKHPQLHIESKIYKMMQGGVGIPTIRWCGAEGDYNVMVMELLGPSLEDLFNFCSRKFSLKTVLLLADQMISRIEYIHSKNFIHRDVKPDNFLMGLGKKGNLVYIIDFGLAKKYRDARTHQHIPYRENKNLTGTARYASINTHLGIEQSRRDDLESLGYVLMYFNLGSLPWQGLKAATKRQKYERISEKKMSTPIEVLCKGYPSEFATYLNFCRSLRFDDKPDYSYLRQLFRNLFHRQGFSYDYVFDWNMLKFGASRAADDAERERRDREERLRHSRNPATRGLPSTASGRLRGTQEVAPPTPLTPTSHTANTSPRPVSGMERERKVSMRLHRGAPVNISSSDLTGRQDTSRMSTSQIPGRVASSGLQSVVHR

[2] = biological target: T2, von Hippel-Lindau disease tumor suppressor/Casein kinase I isoform alpha (Homo sapiens) (UniProt P48729+P40337); assay: PROTAC activity at VHL/Hibit-fused CK1 alpha in human MV4-11 cells assessed as degradation of CK1-alpha incubated for 6 hrs by Nano-Glo HiBiT assay relative to control; format: cell-based
T2 sequence (P40337 whole entry, looked up, the tested form may be a part, canonical isoform): as the sequence (P40337 whole entry, looked up, the tested form may be a part, canonical isoform) above
T2 sequence (P48729 whole entry, looked up, the tested form may be a part, canonical isoform): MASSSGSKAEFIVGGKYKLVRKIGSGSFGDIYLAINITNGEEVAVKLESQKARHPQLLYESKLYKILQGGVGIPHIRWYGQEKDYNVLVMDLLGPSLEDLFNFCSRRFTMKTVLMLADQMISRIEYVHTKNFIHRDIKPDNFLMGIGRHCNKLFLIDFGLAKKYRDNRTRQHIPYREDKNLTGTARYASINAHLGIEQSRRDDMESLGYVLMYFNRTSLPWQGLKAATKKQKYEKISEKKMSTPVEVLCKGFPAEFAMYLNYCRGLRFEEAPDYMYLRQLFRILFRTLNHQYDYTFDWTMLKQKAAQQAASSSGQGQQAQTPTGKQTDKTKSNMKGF

[3] = biological target: T2, von Hippel-Lindau disease tumor suppressor/Casein kinase I isoform alpha (Homo sapiens); assay: PROTAC activity at VHL/Hibit-fused CK1 alpha in human MV4-11 cells assessed as degradation of CK1-alpha at 10 to 30 uM incubated for 6 hrs by Western blot analysis; format: cell-based; settings: dose 10-30 µM
[4] = biological target: T3, von Hippel-Lindau disease tumor suppressor/Casein kinase I isoform epsilon (Homo sapiens) (UniProt P49674+P40337); assay: PROTAC activity at VHL/Hibit-fused CK1 epsilon in human MV4-11 cells assessed as degradation of CK1 epsilon at 5 to 10 uM incubated for 6 hrs by Western blot analysis; format: cell-based; settings: dose 5-10 µM
T3 sequence (P40337 whole entry, looked up, the tested form may be a part, canonical isoform): as the sequence (P40337 whole entry, looked up, the tested form may be a part, canonical isoform) above
T3 sequence (P49674 whole entry, looked up, the tested form may be a part, canonical isoform): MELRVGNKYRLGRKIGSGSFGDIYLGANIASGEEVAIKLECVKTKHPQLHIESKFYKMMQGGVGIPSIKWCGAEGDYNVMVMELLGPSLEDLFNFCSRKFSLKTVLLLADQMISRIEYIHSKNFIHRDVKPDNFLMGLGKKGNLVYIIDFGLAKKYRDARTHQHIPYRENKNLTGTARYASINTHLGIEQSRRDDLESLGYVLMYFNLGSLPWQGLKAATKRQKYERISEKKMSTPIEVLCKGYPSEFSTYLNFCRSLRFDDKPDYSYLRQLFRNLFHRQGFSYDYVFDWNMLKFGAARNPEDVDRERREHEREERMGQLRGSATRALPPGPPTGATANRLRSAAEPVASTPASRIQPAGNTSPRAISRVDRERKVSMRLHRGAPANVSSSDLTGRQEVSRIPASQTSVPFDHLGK

[5] = biological target: T1, von Hippel-Lindau disease tumor suppressor/Casein kinase I isoform delta; assay: PROTAC activity at VHL/CK1 delta in HEK293 cells assessed as induction of degradation of CK1 delta measured after 6 hrs by Western blot analysis; format: cell-based; settings: dose 0.01-30 µM
[6] = biological target: T3, von Hippel-Lindau disease tumor suppressor/Casein kinase I isoform epsilon (Homo sapiens); assay: PROTAC activity at VHL/CK1 epsilon in HEK293 cells assessed as induction of degradation of CK1 epsilon measured after 6 hrs by Western blot analysis; format: cell-based; settings: dose 0.01-30 µM
HEK293 = assay: Effect on DVL3 phosphorylation in human HEK293 cells at 1 uM measured after 6 hrs by Western blot analysis; format: functional, cell-based
[7] = biological target: T1, von Hippel-Lindau disease tumor suppressor/Casein kinase I isoform delta; assay: PROTAC activity at VHL/CK1 delta in HEK293 cells assessed as induction of degradation of CK1 delta at 3 uM measured after 1 hrs by Western blot analysis; format: cell-based
[8] = biological target: T3, von Hippel-Lindau disease tumor suppressor/Casein kinase I isoform epsilon (Homo sapiens); assay: PROTAC activity at VHL/CK1 epsilon in HEK293 cells assessed as induction of degradation of CK1 epsilon at 3 uM measured after 1 hrs by Western blot analysis; format: cell-based
[9] = biological target: T2, von Hippel-Lindau disease tumor suppressor/Casein kinase I isoform alpha (Homo sapiens); assay: PROTAC activity at VHL/CK1 alpha in human MV4-11 cells assessed as induction of degradation of CK1 alpha by measuring maximum efficacy at 2.5 uM measured after 12 hrs by HiBit assay relative to control; format: cell-based
[10] = biological target: T2, von Hippel-Lindau disease tumor suppressor/Casein kinase I isoform alpha (Homo sapiens); assay: PROTAC activity at VHL/CK1 alpha in human MV4-11 cells assessed as induction of degradation of CK1 alpha by measuring maximum efficacy at 10 uM measured after 12 hrs by HiBit assay relative to control; format: cell-based
[11] = biological target: T2, von Hippel-Lindau disease tumor suppressor/Casein kinase I isoform alpha (Homo sapiens); assay: PROTAC activity at VHL/CK1 alpha in human MV4-11 cells assessed as induction of degradation of CK1 alpha measured after 1 hrs by HiBit assay; format: cell-based; settings: dose 0.625-10 µM
[12] = biological target: T1, von Hippel-Lindau disease tumor suppressor/Casein kinase I isoform delta; assay: PROTAC activity at VHL/CK1 delta in human MV4-11 cells assessed as induction of degradation of CK1 delta by measuring maximum efficacy at 0.625 to 10 uM measured after 9 hrs by HiBit assay relative to control; format: cell-based; settings: dose 0.625-10 µM
[13] = biological target: T1, von Hippel-Lindau disease tumor suppressor/Casein kinase I isoform delta; assay: PROTAC activity at VHL/CK1 delta in human U87 cells assessed as induction of degradation of CK1 delta at 1 uM measured after 6 hrs; format: cell-based
[14] = biological target: T3, von Hippel-Lindau disease tumor suppressor/Casein kinase I isoform epsilon (Homo sapiens); assay: PROTAC activity at VHL/CK1 epsilon in human MDA-MB-231 cells assessed as induction of degradation of CK1 epsilon at 1 uM measured after 6 hrs; format: cell-based
[15] = biological target: T2, von Hippel-Lindau disease tumor suppressor/Casein kinase I isoform alpha (Homo sapiens); assay: PROTAC activity at VHL/CK1 alpha in human MDA-MB-231 cells assessed as induction of degradation of CK1 alpha at 1 uM measured after 6 hrs; format: cell-based
[16] = biological target: T2, von Hippel-Lindau disease tumor suppressor/Casein kinase I isoform alpha (Homo sapiens); assay: PROTAC activity at VHL/CK1 alpha in human U87 cells assessed as induction of degradation of CK1 alpha at 1 uM measured after 6 hrs; format: cell-based
[17] = biological target: T1, von Hippel-Lindau disease tumor suppressor/Casein kinase I isoform delta; assay: PROTAC activity at VHL/CK1 delta in human MDA-MB-231 cells assessed as induction of degradation of CK1 delta by measuring maximum efficacy at 1 uM measured after 6 hrs relative to control; format: cell-based
[18] = biological target: T1, von Hippel-Lindau disease tumor suppressor/Casein kinase I isoform delta; assay: PROTAC activity at VHL/HiBit fused CK1 delta in human MV4-11 cells assessed as fold change at 10 uM measured after 6 hrs by Nano-Glo HiBit assay; format: cell-based
[19] = biological target: T1, von Hippel-Lindau disease tumor suppressor/Casein kinase I isoform delta; assay: PROTAC activity at VHL/HiBit fused CK1 delta in human MV4-11 cells assessed as fold change at 10 uM measured after 6 hrs in presence of MLN4924 by Nano-Glo HiBit assay; format: cell-based
[20] = biological target: T1, von Hippel-Lindau disease tumor suppressor/Casein kinase I isoform delta; assay: PROTAC activity at VHL/HiBit fused CK1 delta in human MV4-11 cells assessed as fold change at 10 uM measured after 6 hrs in presence of 10 uM of MU1742 by Nano-Glo HiBit assay; format: cell-based
[21] = biological target: T1, von Hippel-Lindau disease tumor suppressor/Casein kinase I isoform delta; assay: PROTAC activity at VHL/HiBit fused CK1 delta in human MV4-11 cells assessed as fold change at 10 uM measured after 6 hrs in presence of 1 uM of MU1742 by Nano-Glo HiBit assay; format: cell-based
[22] = biological target: T1, von Hippel-Lindau disease tumor suppressor/Casein kinase I isoform delta; assay: PROTAC activity at VHL/HiBit fused CK1 delta in human MV4-11 cells assessed as fold change at 2.5 uM measured after 6 hrs in presence of 10 uM of MU1742 by Nano-Glo HiBit assay; format: cell-based
[23] = biological target: T1, von Hippel-Lindau disease tumor suppressor/Casein kinase I isoform delta; assay: PROTAC activity at VHL/HiBit fused CK1 delta in human MV4-11 cells assessed as fold change at 2.5 uM measured after 6 hrs in presence of 1 uM of MU1742 by Nano-Glo HiBit assay; format: cell-based
[24] = biological target: T1, von Hippel-Lindau disease tumor suppressor/Casein kinase I isoform delta; assay: PROTAC activity at VHL/HiBit fused CK1 delta in human MV4-11 cells assessed as fold change at 0.63 uM measured after 6 hrs in presence of MLN4924 by Nano-Glo HiBit assay; format: cell-based
[25] = biological target: T1, von Hippel-Lindau disease tumor suppressor/Casein kinase I isoform delta; assay: PROTAC activity at VHL/HiBit fused CK1 delta in human MV4-11 cells assessed as fold change at 0.63 uM measured after 6 hrs in presence of 1 uM of MU1742 by Nano-Glo HiBit assay; format: cell-based
[26] = biological target: T3, von Hippel-Lindau disease tumor suppressor/Casein kinase I isoform epsilon (Homo sapiens); assay: PROTAC activity at VHL/CK1 epsilon in human HEK293 cells at 0.625 to 10 uM in presence of MU1742 by Western blot analysis; format: cell-based; settings: dose 0.625-10 µM
[27] = biological target: T1, von Hippel-Lindau disease tumor suppressor/Casein kinase I isoform delta; assay: PROTAC activity at VHL/CK1 delta in human HEK293 cells assessed as degradation of CK1-delta at 3 to 20 uM incubated overnight followed by compound washout and measured after 1 hr by Nano-Glo HiBiT assay; format: cell-based; settings: dose 3-20 µM
[28] = biological target: T3, von Hippel-Lindau disease tumor suppressor/Casein kinase I isoform epsilon (Homo sapiens); assay: PROTAC activity at VHL/CK1 epsilon in human HEK293 cells assessed as degradation of CK1 epsilon at 3 to 20 uM incubated overnight followed by compound washout and measured after 1 hr by Nano-Glo HiBiT assay; format: cell-based; settings: dose 3-20 µM
[29] = biological target: T1, von Hippel-Lindau disease tumor suppressor/Casein kinase I isoform delta; assay: PROTAC activity at VHL/CK1 delta in HEK293 cells assessed as induction of degradation of CK1 delta at upto 20 uM pretreated with LGK974 followed by compound addition and measured after 6 hrs by Western blot analysis; format: cell-based

Emax [1]: 70.1%
Emax [2]: 35.1%
Activity [4]: Active
Activity [5]: Dose-dependent-effect
Activity [6]: Dose-dependent-effect
Activity [7]: Active
Activity [8]: Active
Emax [9]: 20%
Emax [10]: 50%
Activity [11]: Dose-dependent-effect
Emax [12]: 75%
Activity [13]: Active
Activity [14]: Active
Activity [15]: inactive
Activity [16]: inactive
Emax [17]: 75%
fold change (FC) [18]: 0.3
fold change (FC) [19]: 0.93
fold change (FC) [20]: 1.02
fold change (FC) [21]: 0.67
fold change (FC) [22]: 1.19
fold change (FC) [23]: 0.97
fold change (FC) [24]: 0.82
fold change (FC) [25]: 1.19
Activity [26]: inactive
Activity [27]: inactive
Activity [28]: inactive
Activity [29]: Active
Structure (SMILES): Cc1ncsc1-c1ccc(CNC(=O)[C@H]2C[C@H](O)CN2C(=O)[C@H](NC(=O)CCCCCCC(=O)N2CCC(F)(Cn3cnc(-c4ccc(F)cn4)c3-c3ccnc4[nH]ccc34)CC2)C(C)(C)C)cc1
Activity [3]: Not active; Compound Showed Weak Degradation
Activity (HEK293): Active
